Tests used:
galectin-3 [1] = settings: cited from earlier work
galectin-3 [2] = biological target: T1, galectin-3 (Homo sapiens, UniProt P17931); assay: Isothermal titration calorimetry (ITC), galectin-3; type: binding
T1 construct: CRD domain of galectin-3 (residues 113-250); 6xHis; made in house; host or cells: Escherichia coli BL21 (DE3)
Experimental: (§1) Human galectins-1, -3CRD and -7 were produced in E. coli according to previous studies.
(§2) Samples for use in ITC were diluted to appropriate concentrations in dialysate buffer (25 mM Tris-HCl pH 8.0, 300 mM NaCl and 5 mM β-mercaptoethanol) saved from the ultrafiltration step. All samples were filtered with 0.22 μm cutoff filters (Millipore) and extensively degassed with stirring prior to use. […] To avoid heating effects due to differing concentration of DMSO in the injectant and protein solutions, 5% DMSO was added to the protein. Software provided by Microcal was used for the curve fitting of the experimental data as well as for calculation of the thermodynamic data. Specifically, all ITC data were corrected for the heat of dilution of the titrant by subtracting the excess heats at high molar ratios of ligands to galectins. Binding stoichiometry, enthalpy and equilibrium association constants were determined by fitting the corrected data to a bimolecular interaction model and summarised in Table 1.
(§3) Isothermal titration calorimetry (ITC). Samples for use in ITC were diluted to appropriate concentrations in dialysate buffer (25 mM
(§4) Tris-HCl pH 8.0, 300 mM NaCl and 5 mM β-mercaptoethanol) saved from the ultrafiltration step. All samples were filtered with […] cutoff filters (Millipore) and extensively degassed with stirring prior to use.
(§5) Isothermal titration calorimetry was performed using MicroCal
(§6) Auto-iTC200 (MicroCal, INc., Northampton, MA) at 298K. […]
(§7) order to avoid heating effects due to differing concentration of DMSO in the injectant and protein solutions, 5% DMSO was added to the protein.
(§8) Software provided by Microcal was used for the curve fitting of the experimental data as well as for calculation of the thermodynamic data.
(§9) Specifically, all ITC data were corrected for the heat of dilution of the titrant by subtracting the excess heats at high molar ratios of ligands to galectins. Binding stoichiometry, enthalpy and equilibrium association constants were determined by fitting the corrected data to a bimolecular

galectin-1 = biological target: T2, galectin-1 (Homo sapiens, UniProt P09382); assay: Isothermal titration calorimetry (ITC), galectin-1; type: binding
T2 construct: full-length galectins-1 (residues 1-135); 6xHis; made in house; host or cells: Escherichia coli BL21 (DE3)
Experimental: as §1, §2, §3, §4, §5, §6, §7, §8, §9

galectin-7 = biological target: T3, galectin-7 (Homo sapiens, UniProt P47929); assay: Isothermal titration calorimetry (ITC), galectin-7; type: binding
T3 construct: (residues 1-136); 6xHis; made in house; host or cells: Escherichia coli BL21 (DE3)
Experimental: as §1, §2, §3, §4, §5, §6, §7, §8, §9

T1 sequence (P17931 113-250): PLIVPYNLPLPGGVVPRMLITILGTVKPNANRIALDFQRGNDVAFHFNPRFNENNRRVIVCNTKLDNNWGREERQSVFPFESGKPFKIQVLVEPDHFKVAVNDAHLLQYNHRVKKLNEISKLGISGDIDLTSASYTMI
T3 sequence (P47929 whole entry, the tested form may be a part): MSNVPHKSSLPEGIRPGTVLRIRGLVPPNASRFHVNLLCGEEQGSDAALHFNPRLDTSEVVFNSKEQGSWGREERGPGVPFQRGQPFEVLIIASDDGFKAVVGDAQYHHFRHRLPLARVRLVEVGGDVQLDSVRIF
T2 sequence (P09382 whole entry, the tested form may be a part): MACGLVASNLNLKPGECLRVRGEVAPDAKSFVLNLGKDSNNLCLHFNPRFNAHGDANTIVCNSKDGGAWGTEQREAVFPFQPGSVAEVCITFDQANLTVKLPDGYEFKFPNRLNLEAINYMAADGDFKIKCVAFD

Row | Molecule | -TΔS (galectin-3 [2]; ITC, 298 K) [kcal/mol] | n (stoichiometry) (galectin-3 [2]; ITC, 298 K) | ΔG (galectin-3 [2]; ITC, 298 K) [kcal/mol] | ΔH (galectin-3 [2]; ITC, 298 K) [kcal/mol] | -TΔS (galectin-1; 298 K) [kcal/mol] | n (stoichiometry) (galectin-1; 298 K) | ΔH (galectin-1; 298 K) [kcal/mol] | -TΔS (galectin-7; 298 K) [kcal/mol] | Kd (galectin-7; 298 K) [µM] | n (stoichiometry) (galectin-7; 298 K) | ΔG (galectin-7; 298 K) [kcal/mol] | ΔH (galectin-7; 298 K) [kcal/mol] | further results
1 | 3′-(4-methoxy-2,3,5,6-tetrafluorobenzamido)-N-acetyl-lactosamine [L3] |  |  |  |  |  |  |  |  |  |  |  |  | Kd (galectin-3 [1]): 3.3 µM
2 | OC[C@H]1O[C@@H](S[C@@H]2O[C@H](CO)[C@H](O)[C@H](n3cc(-c4cccc(F)c4)nn3)[C@H]2O)[C@H](O)[C@@H](O)[C@H]1O [TAZTDG, 3-deoxy-3-(4-[m-fluorophenyl]-1H-1,2,3-triazol-1-yl)-thio-digalactoside] | 6.4 ± 1.02 | 0.92 ± 0.08 | -8.3 ± 0.25 | -14.7 ± 0.99 | 8.6 ± 0.51 | 1.06 ± 0.01 | -16.1 ± 0.51 | 4.4 ± 0.04 | 87 ± 3.21 | 0.89 ± 0.01 | -5.5 ± 0.01 | -10.0 ± 0.04 | Kd (galectin-3 [2]; ITC, 298 K, galectin-3CRD): 0.84 ± 0.41 µM; Relative affinity (galectin-3 [2]; ITC, 298 K, relative to TDG = 1): 89.7; ΔΔH(TAZTDG–TDG) (galectin-3 [2]; ITC, galectin-3): -5.3 kcal/mol; Kd (galectin-1; 298 K): 3.24 ± 0.3 µM; ΔG (galectin-1; 298 K): -7.5 ± 0.05 kcal/mol; Relative affinity (galectin-1; 298 K, relative to TDG = 1): 20.7; ΔΔH(TAZTDG–TDG) (galectin-1; galectin-1): -4.5 kcal/mol; Relative affinity (galectin-7; 298 K, relative to TDG = 1): 6.6; ΔΔH(TAZTDG–TDG) (galectin-7; galectin-7): -2.4 kcal/mol
3 | OC[C@H]1O[C@@H](S[C@@H]2O[C@H](CO)[C@H](O)[C@H](n3cc(-c4cccc(F)c4)nn3)[C@H]2O)[C@H](O)[C@@H](n2cc(-c3cccc(F)c3)nn2)[C@H]1O [TD139, 3,3’-deoxy-3,3’-bis-(4-[m-fluorophenyl]-1H-1,2,3-triazol-1-yl)-thio-digalactoside] | 8.3 ± 0.90 | 0.96 ± 0.01 | -9.9 ± 0.37 | -18.2 ± 0.82 | 7.6 ± 0.43 | 0.96 ± 0.04 | -16.7 ± 0.40 | 3.2 ± 0.09 | 38 ± 0.71 | 0.99 ± 0.10 | -6.1 ± 0.06 |  | binding enhancement compared with TDG (galectin-3 [2]; ITC, galectin-3): ~ 1000 fold; change in binding free energy ΔΔG(TD139-TDG) (galectin-3 [2]; ITC, galectin-3): -4.3 kcal/mol; enthalpy change ΔΔH(TD139-TDG) (galectin-3 [2]; ITC, galectin-3): -8.8 kcal/mol; entropy change –TΔΔS(TD139-TDG) (galectin-3 [2]; ITC, galectin-3): 4.6 kcal/mol; ΔΔH(TD139–TAZTDG) (galectin-3 [2]; ITC, galectin-3): -3.5 kcal/mol; increase in binding affinity compared with L3 (galectin-3 [2]; galectin-3, versus literature Kd of L3): 50 fold; binding enhancement compared with binding to TDG (galectin-1; galectin-1): ~ 300 fold; ΔΔH(TD139–TAZTDG) (galectin-1; galectin-1): -0.6 kcal/mol; difference in binding free energy ΔΔG(TD139-TDG) (galectin-7; galectin-7): -1.7 kcal/mol; increase in affinity compared with TDG binding (galectin-7; galectin-7): 15 fold; ΔΔH(TD139–TAZTDG) (galectin-7; galectin-7): 0.7 kcal/mol
4 | OC[C@H]1O[C@@H](S[C@@H]2O[C@H](CO)[C@H](O)[C@H](O)[C@H]2O)[C@H](O)[C@@H](O)[C@H]1O [TDG, thio-digalactoside] | 3.7 ± 0.48 | 1.02 ± 0.05 |  | -9.4 ± 0.48 | 5.9 ± 0.27 | 1.02 ± 0.10 | -11.6 ± 0.26 | 3.2 ± 0.55 |  | 0.94 ± 0.02 | -4.4 ± 0.06 | -7.6 ± 0.55 | 

Reference: PMC4945863, “Dual thio-digalactoside-binding modes of human galectins as the structural basis for the design of potent and selective inhibitors” (Scientific Reports, 2016)
